Here are results for seven compounds from patent US5516779A, “17β-substituted-6-azasteroid derivatives useful as 5α-reductase inhibitors” (Merck & Co., Inc., priority 1994, dated 1996).

Usually pIC50 stands for the negative decadic logarithm of the IC50, by convention in mol/L.

pIC50: −log10 of the molar value.

For the first experiment, the target named is T1, 5α-reductase type 1 (Homo sapiens, UniProt P18405).
T1 construct: Samples of human tissue were pulverized using a freezer mill and homogenized; from tissue; host or cells: human scalp tissue, crude nuclear pellet
T1 sequence (P18405 1-259): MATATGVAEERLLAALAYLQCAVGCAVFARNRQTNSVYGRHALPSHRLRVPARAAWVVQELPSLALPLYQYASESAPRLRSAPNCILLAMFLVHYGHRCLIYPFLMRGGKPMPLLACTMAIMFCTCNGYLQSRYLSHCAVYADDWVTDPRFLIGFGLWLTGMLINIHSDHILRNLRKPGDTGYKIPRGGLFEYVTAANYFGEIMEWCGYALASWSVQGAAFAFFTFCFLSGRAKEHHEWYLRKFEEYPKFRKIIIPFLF
The experiment is described as follows: Inhibition of 5α-reductase type 1 (conversion of testosterone to DHT, human scalp homogenate).
Settings: not given
The experiment is classed as biochemical. The method, then: Samples of human tissue were pulverized using a freezer mill and homogenized in 40 mM potassium phosphate, pH 6.5, 5 mM magnesium sulfate, 25 mM potassium chloride, 1 mM phenylmethylsulfonyl fluoride, 1 mM dithiothreitol (DTT) containing 0.25 M sucrose using a Potter-Elvehjem homogenizer. A crude nuclear pellet was prepared by centrifugation of the homogenate at 1,500 x g for 15 min. The crude nuclear pellet was washed two times and resuspended in two volumes of buffer. Glycerol was added to the resuspended pellet to a final concentration of 20%. The enzyme suspension was frozen in aliquots at -80° C. The prostatic and scalp reductases were stable for at least 4 months when stored under these conditions.
The reaction mixture for the type 1 5α-reductase contained 40 mM potassium phosphate, pH 6.5, […] [7-^3 H]-testosterone, 1 mM dithiothreitol and 500 µM NADPH in a final volume of 100 μl. The reaction mixture for the type 2 5α-reductase contained 40 mM sodium citrate, pH 5.5, 0.3 mM [7-^3 H]-testosterone, 1 mM dithiothreitol and 500 µM NADPH in a final volume of 100 μl. Typically, the assay was initiated by the addition of 50-100 μg prostatic homogenate or 75-200 μg scalp homogenate and incubated at 37° C. After 10-50 min. the reaction was quenched by extraction with 250 μl of a mixture of 70% cyclohexane: 30% ethyl acetate containing 10 μl each DHT and T. The aqueous and organic layers were separated by centrifugation at 14,000 rpm in an Eppendorf microfuge. The organic layer was subjected to normal phase HPLC (10 cm Whatman partisil 5 silica column equilibrated in 1 ml/min 70% cyclohexane: 30% ethyl acetate; retention times: DHT, 6.8-7.2 min.; androstanediol, 7.6-8.0 min.; T, 9.1-9.7 min.). The HPLC system consisted of a Waters Model 680 Gradient System equipped with a Hitachi Model 655α autosampler, Applied Biosystems Model 757 -variable UV detector, and a Radiomatic Model A120 radioactivity analyzer. The conversion of T to DHT was monitored using the radioactivity flow detector by mixing the HPLC effluent with one volume of Flo Scint 1 (Radiomatic). Under the conditions described, the production of DHT was linear for at least 25 min. The only steroids observed with the human prostate and scalp preparations were T, DHT and androstanediol.
Compounds were dissolved in 100% ethanol. The compound to be tested was pre-incubated with the enzyme (either 5α-reductase type 1 or 2) prior to initiation by addition of substrate testosterone. IC50 values represent the concentration of inhibitor required to decrease enzyme conversion of testosterone to dihydrotestosterone by 50% of the control. IC50 values were determined using a 6 point titration where the concentration of the inhibitor was varied from 0.1 to 1000 nM. Representative compounds of this invention were tested in the above described assay for 5α-reductase type 1 and type 2 inhibition.
In the case of `CN1C[C@H]2[C@@H]3CC[C@H](O)[C@@]3(C)CC[C@@H]2[C@@]2(C)CCC(=O)C=C12` [XIII, 6-methyl-17-hydroxy-6-aza-androst-4-en-3-one], the pIC50 was > 7.00.

Staying with this experiment, now noted: 5α-reductase type 1; pH 6.5; 6 point titration, 0.1 to 1000 nM; "under about"; read-out: IC50 for inhibition of the type 1 isozyme.
For the compound `CN1C[C@@H]2[C@H](CC[C@]3(C)C(=O)CC[C@@H]23)[C@@]2(C)CCC(=O)C=C12` [VII, 6-methyl-6-aza-androst-4-en-3,17-dione], the pIC50 is > 7.00. Regarding `CCC[C@H]1CC[C@H]2[C@@H]3CN(C)C4=CC(=O)CC[C@]4(C)[C@H]3CC[C@]12C` [X, 6-methyl-17-propyl-6-aza-androst-4-en-3-one], the pIC50 was > 7.00. Consider `CN1C[C@H]2[C@@H]3CCC[C@@]3(C)CC[C@@H]2[C@@]2(C)CCC(=O)C=C12` [XII, 6-methyl-6-aza-androst-4-en-3-one], for which the pIC50 was > 7.00.

Turning to `CN1C[C@H]2[C@@H]3CC[C@H](OC(=O)NC(C)(C)C)[C@@]3(C)CC[C@@H]2[C@@]2(C)CCC(=O)C=C12` [XIV, 6-methyl-17-t-butylcarbamoyloxy-6-aza-androst-4-en-3-one], the pIC50 is > 7.00. On the same count and under the same terms, next, `CC(C)CCC[C@@H](C)[C@H]1CC[C@H]2[C@@H]3CNC4=CC(=O)CC[C@]4(C)[C@H]3CC[C@]12C` [XV, 6-aza-cholest-4-en-3-one]: > 7.00. As for `CC(C)CCC[C@@H](C)[C@H]1CC[C@H]2[C@@H]3CN(C)C4=CC(=O)CC[C@]4(C)[C@H]3CC[C@]12C` [XVI, 6-methyl-6-aza-cholest-4-en-3-one], the pIC50 was > 7.00.
